According to PMC2603005, “Structural insights into phenylethanolamines high-affinity binding site in NR2B from binding and molecular modeling studies” (Molecular Brain, 2008):
Where two headings read alike, the source gives them in different places.

Tests used:
[1] = target: NR1/NR2B; set-up: method as in PMID 15769547, PMID 15056006; details: NR1/NR2B transfected HEK293 and mouse L(tk-) cell line; cited from earlier work
[2] = target: rat brain cortex; details: [3H]ifenprodil binding; cited from earlier work
[3] = tested on: NR1/NR2B(D101A); set-up: method as in PMID 14534359; details: D101A mutation, HEK293 membranes; cited from earlier work
[4] = tested on: NR1/NR2B(F176A); set-up: method as in PMID 14534359; details: F176A mutation, HEK293 membranes; cited from earlier work
[5] = target: T1, 6 × His-ATD2B (amino-terminal domain of NR2B subunit), wild type (Rattus norvegicus, UniProt Q00960); experiment: CD ligand displacement: RO25,6981 displacing saturating ifenprodil on 6 × His-ATD2B; assay type: binding; set-up: representation of the ATD2B construct (Arg27 to Arg393) with 6xHis-tag and linker; made in house
T1 sequence (Q00960 27-393): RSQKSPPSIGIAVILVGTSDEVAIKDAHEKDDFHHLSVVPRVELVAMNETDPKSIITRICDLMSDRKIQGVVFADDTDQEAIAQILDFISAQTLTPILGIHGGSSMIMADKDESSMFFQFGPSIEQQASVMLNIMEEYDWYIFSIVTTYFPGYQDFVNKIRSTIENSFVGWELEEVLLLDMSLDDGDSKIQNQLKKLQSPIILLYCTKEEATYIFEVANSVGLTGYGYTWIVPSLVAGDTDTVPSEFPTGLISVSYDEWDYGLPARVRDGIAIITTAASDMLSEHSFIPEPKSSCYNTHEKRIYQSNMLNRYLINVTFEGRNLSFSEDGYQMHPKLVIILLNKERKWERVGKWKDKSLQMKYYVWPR
Description: DLS measurements were made with DynaPro (Protein Solutions) and CD spectra were measured at 25°C on a Jasco J-715 Spectropolarimeter equipped with a 0.1 cm path-length cuvette (Jasco Corporation, Tokyo, Japan) as described previously. For the CD assays, the refolded protein was concentrated to 1 mg/ml using Vivaspin 2 ml concentrator (Vivascience). […] The CD spectra of the wild-type and mutant 6 × His-ATD2B proteins in the absence and presence of a ligand were recorded from 190 to 250 nm. The CD spectrum of Buffer 2 was subtracted from all the CD spectra obtained. […] All experiments were performed using at least two separate batches of induced and refolded 6 × His-ATD2B proteins (both wild-type and mutants), each batch in duplicates or triplicates. The dose-dependent binding curves of ligands to 6 × His-ATD2B were fitted by the following equation: […]

[6] = target: T1, 6 × His-ATD2B (amino-terminal domain of NR2B subunit), wild type; experiment: biochemical
Description: DLS measurements were made with DynaPro (Protein Solutions) and CD spectra were measured at 25°C on a Jasco J-715 Spectropolarimeter equipped with a 0.1 cm path-length cuvette (Jasco Corporation, Tokyo, Japan) as described previously [41]. For the CD assays, the refolded protein was concentrated to 1 mg/ml using Vivaspin 2 ml concentrator (Vivascience). […] The final change of assay volume was < 3% for all ligands investigated. The CD spectra of the wild-type and mutant 6 × His-ATD2B proteins in the absence and presence of a ligand were recorded from 190 to 250 nm. The CD spectrum of Buffer 2 was subtracted from all the CD spectra obtained. […] All experiments were performed using at least two separate batches of induced and refolded 6 × His-ATD2B proteins (both wild-type and mutants), each batch in duplicates or triplicates. The dose-dependent binding curves of ligands to 6 × His-ATD2B were fitted by the following equation:
Y = Bmax [ligand]/(KD + [ligand])
where Y is the shift in ellipticity, [ligand] is the concentration of ligand investigated and KD is the dissociation equilibrium constant.
The experiment data were analyzed by nonlinear curve fitting (ORIGIN7, USA). All pooled data were expressed as mean ± SEM.

[7] = target: NR1-1a/NR2B receptors (Rattus norvegicus, UniProt P35439+Q00960); experiment: cell-based
Chain of NR1-1a/NR2B receptors (Q00960 27-1482, other chains not shown): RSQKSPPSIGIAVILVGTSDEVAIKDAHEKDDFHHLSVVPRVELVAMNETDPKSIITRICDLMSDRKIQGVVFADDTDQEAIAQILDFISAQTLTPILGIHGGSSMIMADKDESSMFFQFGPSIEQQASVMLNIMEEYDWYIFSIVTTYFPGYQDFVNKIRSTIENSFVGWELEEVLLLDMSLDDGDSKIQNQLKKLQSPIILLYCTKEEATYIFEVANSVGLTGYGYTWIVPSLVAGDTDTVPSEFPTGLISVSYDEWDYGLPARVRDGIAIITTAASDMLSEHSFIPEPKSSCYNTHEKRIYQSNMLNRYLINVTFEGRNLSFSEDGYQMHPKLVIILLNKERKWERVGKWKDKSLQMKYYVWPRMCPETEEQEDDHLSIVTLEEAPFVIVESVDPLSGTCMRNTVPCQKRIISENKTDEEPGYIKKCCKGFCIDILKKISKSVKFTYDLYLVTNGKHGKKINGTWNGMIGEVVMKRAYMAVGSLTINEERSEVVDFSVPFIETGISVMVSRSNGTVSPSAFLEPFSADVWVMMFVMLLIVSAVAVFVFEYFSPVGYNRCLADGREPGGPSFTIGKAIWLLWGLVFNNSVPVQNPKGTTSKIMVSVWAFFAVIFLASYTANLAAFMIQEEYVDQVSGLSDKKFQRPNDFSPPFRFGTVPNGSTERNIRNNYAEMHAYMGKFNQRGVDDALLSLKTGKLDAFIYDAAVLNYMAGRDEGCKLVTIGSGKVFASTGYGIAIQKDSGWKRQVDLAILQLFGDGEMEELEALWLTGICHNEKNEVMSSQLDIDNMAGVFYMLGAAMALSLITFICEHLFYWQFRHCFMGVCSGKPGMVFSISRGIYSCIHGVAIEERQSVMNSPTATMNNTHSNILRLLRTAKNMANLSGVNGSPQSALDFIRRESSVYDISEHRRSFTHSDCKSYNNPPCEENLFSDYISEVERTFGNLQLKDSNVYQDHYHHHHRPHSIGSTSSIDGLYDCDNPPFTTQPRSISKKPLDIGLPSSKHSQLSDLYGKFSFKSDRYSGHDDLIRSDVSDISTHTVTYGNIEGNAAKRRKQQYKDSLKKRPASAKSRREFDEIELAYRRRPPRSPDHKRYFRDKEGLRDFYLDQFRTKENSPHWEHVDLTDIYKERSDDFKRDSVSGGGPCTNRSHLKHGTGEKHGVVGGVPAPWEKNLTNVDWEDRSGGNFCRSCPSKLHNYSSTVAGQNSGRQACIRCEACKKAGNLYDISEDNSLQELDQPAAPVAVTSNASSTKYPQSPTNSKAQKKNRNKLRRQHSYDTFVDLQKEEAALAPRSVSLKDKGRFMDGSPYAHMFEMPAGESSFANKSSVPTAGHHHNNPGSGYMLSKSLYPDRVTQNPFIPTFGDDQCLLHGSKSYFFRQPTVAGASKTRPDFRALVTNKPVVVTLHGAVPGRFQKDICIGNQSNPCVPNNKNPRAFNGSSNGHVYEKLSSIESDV
Description: cRNA for rat NR1-1a (hereafter NR1) and NR2B were synthesized in vitro and injected (5–10 ng) into stage V-VI Xenopus laevis oocytes, isolated as previously described [22, 26, 58]. Two-electrode voltage-clamp current recordings were made 2–7 days post injection. The recording solution contained (in mM) 90 NaCl, 3 KCl, 10 HEPES, 0.5 BaCl2, 0.01 EDTA, 0.05 glycine (23°C); pH was adjusted to 7.3 with NaOH. EDTA (10 μM) was added to chelate contaminant extracellular divalent ions, including trace amounts of Zn^2+. Solution exchange was computer controlled through an 8-modular valve positioner (Digital MVP Valve, Hamilton Company, Reno, NV). Voltage and current electrodes were filled with 0.3 and 3.0 M KCl, respectively, and current responses recorded at a holding potential of -40 mV. […] Data were pooled among oocytes and mean composite concentration-effect curve was fitted by the following equation:

In the case of `CC(C(O)c1ccc(O)cc1)N1CCC(Cc2ccccc2)CC1` (stereo not drawn) [[^3H]ifenprodil], the Kd [1] is listed as 34 to 79 nM and the Kd [2] is listed as 36 nM.

In the case of [^3H]RO25,6981, the “[3H]RO25,6981 binding to membranes” value [3] is listed as “complete loss” and the “[3H]RO25,6981 binding to membranes” value [4] is listed as “complete loss”.

`C[C@@H](CN1CCC(Cc2ccccc2)CC1)[C@@H](O)c1ccc(O)cc1` [RO25,6981] gave a Ki ([5]; Affinity (Ki) on displacing ifenprodil) of 4 ± 1 nM, a Ki ([5]; Affinity (Ki) on displacing ifenprodil, Buffer-12 refolded protein, in presence of saturating 5 μM ifenprodil) of 2 ± 1 nM and a Ki ([5]; Affinity (Ki) on displacing ifenprodil, Buffer-13 refolded protein, in presence of saturating 5 μM ifenprodil) of 3 ± 1 nM. It also gave a Ki ([5]; range over Buffers -9, -12 and -13, n = 5 per buffer, read-out: Ki values) of 2 to 4 nM, a Kd ([6]; Buffer-9 refolded protein, CD at 25°C, mean ± S.E., n = 5) of 7 ± 3 nM and a Kd ([6]; Buffer-12 refolded protein, CD at 25°C, n = 5) of 4 ± 1 nM. The Kd ([6]; Buffer-13 refolded protein, CD) was 4 ± 2 nM and the IC50 [7] was 59 ± 1 nM.
